The values that follow come from PubChem BioAssay (NCI).

Molecules are shown by their SMILES.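 Grown in 96-well plates, cells were treated for 48 hours with each compound at five concentrations. Insufficient inhibition: endpoint recorded as highest concentration tested. GI50 = concentration required for 50% inhibition of growth. TGI denotes the concentration required for complete inhibition of growth.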

Among the test systems are NCI-H226 lung; CAKI-1 renal; SR leukemia; SK-MEL-5 melanoma; SK-OV-3 ovarian; HS 578T breast; OVCAR-8 ovarian; NCI/ADR-RES ovarian; IGROV1 ovarian; NCI-H23 lung.
Test in all cases: NCI-60 cell line screen, 48 h

`COc1ccc(-c2cc(Nc3ccnc(N4CCOCC4)n3)on2)cc1`: the GI50 with NCI-H226 lung is 751 nM; with CAKI-1 renal it was 89 nM; with SR leukemia it was 56.6 nM; in the assay with SK-MEL-5 melanoma, 189 nM; in the assay with SK-OV-3 ovarian, 351 nM; in the assay on HS 578T breast it was 303 nM. For the same molecule, the GI50 with OVCAR-8 ovarian is 443 nM; in the assay on NCI/ADR-RES ovarian, 143 nM; in the assay on IGROV1 ovarian, 245 nM; with NCI-H23 lung, 516 nM. The TGI with NCI-H226 lung is 9.82 µM; with CAKI-1 renal, 18.7 µM; in the assay on SR leukemia it was greater than 100 µM; in the assay on SK-MEL-5 melanoma, 2070 nM; with SK-OV-3 ovarian, 22.5 µM; in the assay on HS 578T breast it was 9.8 µM. Further, the TGI turned out to be 11.4 µM in the assay on OVCAR-8 ovarian, 5.76 µM with NCI/ADR-RES ovarian, 16.9 µM in the assay on IGROV1 ovarian and 29.1 µM in the assay on NCI-H23 lung.
